From patent publication US6399583B1, “Hybrid anthracyclines from genetically engineered streptomyces galilaeus strains, process for production and uses thereof” (Galilaeus Oy, priority 1998, dated 2002) come the findings set out here.

The subject of one experiment is B16-F0 melanoma. The experiment can be described thus: Cytotoxicity assay, ATP detection, B16-F0. Type of experiment: cell-based, mouse. The following applies: B16-F0 cells in vitro, read-out: ED50 B16-F0. The protocol: (§1) The cytotoxicity tests were performed in 96-well microtiter plates (sterile white plates with clear bottom, Corning Costar Corporation, Cambridge, Mass., USA). The anthracyclines were pipetted into the plates in 10 μl of ethanol, pure ethanol was used for control plates. Daunorubicin and aclarubicin were used as positive controls. When the ethanol had evaporated, the cells were seeded into the plates in 100 μl of appropriate medium. The number of cells seeded per well was 2500 with MES-SA, 3000 with MES-SA/D×5, 3000 with LL/2, 2000 with B16-F0 and B16-F1, 2000 with KLN-205 and 8000 with MLTC-1. The ATP content of the cells was measured after incubating the cells for three days at 37° C. with 5% CO2.
(§2) The growth medium was removed by turning the plates over, and 200 μl of ATP extraction reagent, Somalyze, were added to the wells. The plates were then incubated for 30 minutes at room temperature. The ATP measurement was performed with Luminoskan luminometer (Labsystems Oy, Helsinki, Finland) at 22° C. 20 μl of ATP monitoring reagent containing luciferin and luciferase was dispensed, and an integral measurement of 10 s with 2 s lag time was performed for each well. All reagents used were supplied by Bio-Orbit Oy, Turku, Finland.
(§3) The direct luminometer output (in relative light units, RLUS) was used to calculate the cytotoxic effect. This light signal is directly proportional to the amount of […] in a wide range (determined with Bio-Orbit ATP standard, data not shown). On the other hand, the amount of ATP is directly proportional to the amount of living cells (Kangas et al., 1984). The results are expressed as percentages of the control value of untreated cells. An IC50 value (the drug concentration resulting to an ATP signal of 50% of the untreated control signal) was graphically estimated from the % of control vs. drug concentration plot.
(§4) H075-4a was also tested with several mouse cell lines in vitro (all were purchased from ATCC, Rockville, Md., USA): Lewis lung carcinoma (LL/2) (CRL-1642), B16-F0 melanoma (CRL-6322), B16-F1 melanoma (CRL-6323), KLN-205 lung squamous cell carcinoma (CRL-1453) and MLTC-1 leydig cell tumor (CRL-2065) using daunomycin, aclarubicin and H075-1a (MA 144U1) as references.
(§5) All cells grew as monolayers and were cultured at 37° C. with 5% CO2 according to ATCC standard instructions for each cell line: LL/2 in Dulbecco's modified Eagle's medium with 4.5 g/l glucose and 10% FCS, B16-F0 and B16-F1 in MEM (Eagle) in Earle's BSS with non-essential amino acids and 10% FCS, KLN-205 in MEM (Eagle) in Earle's BSS with non-essential amino acids and 10% FCS, MLTC-1 in RPMI 1640 with 25 mM HEPES and 10% FBS. All media were purchased from Gibco BRL, the serum was Gibco BRL Foetal Bovine Serum. […]

Experiment [1] deals with L1210 mouse lymphocytic leukemia cells. Briefly: Flow cytometry (mode of action), cell cycle phases. Type of experiment: cell-based. The following applies: for G1 (%) / G2 (%) / S + M (%) / Cells (1000/ml): L1210 cells, 24 h incubation; for G1 (%): percentage of cells in phase G1; for G2 (%): percentage of cells in phase G2; for S + M (%): percentage of cells in phases S + M; for Cells (1000/ml): starting cell number 46000 cells/ml. The protocol:
L1210 mouse lymphocytic leukemia cells growing in suspension culture were maintained at exponential growth in Dulbecco's modified Eagle's medium with 4.5 g/l glucose and 10% FBS, at 37° C. with 5% CO2. The experiments were started by adding the ethanol-dissolved anthracyclines, in amounts yielding to the appropriate final concentrations, to 25 cm^2 cell culture flasks. After the ethanol had evaporated, 5 ml of an approximately 50 000 cells per ml suspension was added to the flasks. Flow cytometric analysis was made of the original cell suspension and after one, two and three days incubation with or without the drugs.
Cells were prepared for flow cytometric DNA analysis according to the method of Vindelov et al. (1985). The analysis was performed with an Epics XL flow cytometer (Coulter Corporation, Miami, Fla.). Samples were illuminated with a […] air-cooled argon ion laser (488 nm) and the fluorescence of propidium iodide was detected through 620-nm band pass filter. The number of cells in each sample was separately counted by adding an internal calibrator (50 μl of a solution containing 1×10^6 Fluoresbrite beads/ml) to 50 μl of cell suspension.
Based on the flow cytometric studies, the cell cycle phases for the cells studied could be detected. Phase G1 is the stage for RNA and protein synthesis, but not for replication. Transition from phase G1 to phase S means the initiation of replication, and the phase will last until all of the DNA has been replicated. The period from phase S up to mitosis (M) is phase G2.

For the next experiment, the system named is MLTC-1 leydig cell tumor. Briefly: Cytotoxicity assay, ATP detection, MLTC-1. It counts as cell-based, mouse. To be noted: MLTC-1 cells in vitro, read-out: ED50 MLTC-1. The method, then: as §1, §2, §3, §4, §5
Another experiment relates to SK-N-MC. The experiment can be described thus: Cytotoxicity assay, ATP detection, SK-N-MC. To be noted: SK-N-MC cells in vitro; read-out: ED50 SK-N-MC. Type of experiment: cell-based.
Experiment [2] has as its system Lewis lung carcinoma (LL/2). Briefly: Cytotoxicity assay, ATP detection, LL/2. Type of experiment: cell-based, mouse. To be noted: LL/2 cells in vitro, read-out: ED50 LL/2. The method, then:
as §1, §2, §3, §4, §5

The test system of experiment [3] is MES-SA human uterine sarcoma cells. The experiment can be described thus: Cytotoxicity assay, luminescence ATP detection, MES-SA. Type of experiment: cell-based. To be noted: three days incubation, ATP content, highest concentration 10^-5 M, read-out: ED50 (nM) MES-SA. The protocol:
The cytotoxicities of the new anthracyclines were tested in vitro with two cell lines: human uterine sarcomas MES-SA (CRL-1976; American Type Culture Collection (ATCC), Rockville, Md., USA) and MES-SA/D×5 (CRL-1977; ATCC, Rockville, Md., USA). MES-SA/D×5 has been developed by growing MES-SA cells in increasing concentrations of doxorubicin (Harker and Sikic, 1985).
Monolayer cultures were grown in McCoy's 5A medium with L-glutamine (Gibco BRL) supplemented with 10% FBS (Foetal Bovine Serum, Gibco BRL). No antibiotics were added. As the resistance is stable for at least 20 passages, the MES-SA/D×5 cells were grown without anthracycline selection (Harker and Sikic, 1985). Cells were maintained at 37° C. with 5% CO2 and subcultured every 3-5 days.
as §1, §2, §3

Read-outs that look alike come from different tables or passages of the source.

On to `CCC1(O)CC(OC2CC(N(C)C)C(OC3CC(O)C(OC4CC(O)C(O)C(C)O4)C(C)O3)C(C)O2)c2c(O)c3c(c(O)c2C1C(=O)OC)C(=O)c1cccc(O)c1C3=O` (stereo not drawn) [Compound H075-4a], for which the EC50 was 2 nM in the experiment on B16-F0 melanoma; 60 nM in the experiment on MLTC-1 leydig cell tumor; 9 nM in the experiment with SK-N-MC; 8 nM in experiment [2]; 1 nM in experiment [3]. Further, the “G1 (%)” value was found to be 40% in experiment [1] (concentration 1 × 10^−8M) and 45% in experiment [1] (concentration 3.3 × 10^−8M). The “G2 (%)” value is on record as 12% in experiment [1] (concentration 1 × 10^−8M) and 19% in experiment [1] (concentration 3.3 × 10^−8M). Moreover, the “S + M (%)” value in experiment [1] (concentration 1 × 10^−8M) turned out to be 48%; in experiment [1] (concentration 3.3 × 10^−8M), 36%. The figures for the “Cells (1000/ml)” value in experiment [1] (concentration 1 × 10^−8M) and in experiment [1] (concentration 3.3 × 10^−8M) were 88 1000/ml and 67 1000/ml, respectively. In addition, the “cell cycle phase in which cells are arrested” value in experiment [1] (flow cytometric DNA analysis) was “arrested the cells in phase G1”.

`COc1cccc2c1C(=O)c1c(O)c3c(c(O)c1C2=O)C[C@@](O)(C(C)=O)C[C@@H]3O[C@H]1C[C@H](N)[C@H](O)[C@H](C)O1` [Daunorubicin]: the EC50 in the experiment with B16-F0 melanoma (Mus musculus, B16F0) is 20 nM; in the experiment on MLTC-1 leydig cell tumor (Mus musculus, Leydig) it was 900 nM; with SK-N-MC, 3 nM; in experiment [2] (Mus musculus), 15 nM; in experiment [3] (Homo sapiens, 72 h) it was 8 nM. Also, the “G1 (%)” value in experiment [1] (concentration 1 × 10^−8M) is 11%; in experiment [1] (concentration 3.3 × 10^−8M), 6%. Also, the “G2 (%)” value in experiment [1] (concentration 1 × 10^−8M) was 38%; in experiment [1] (concentration 3.3 × 10^−8M), 66%. For the same molecule, the “S + M (%)” value in experiment [1] (concentration 1 × 10^−8M) was determined as 51%; in experiment [1] (concentration 3.3 × 10^−8M), 27%. Further, the “Cells (1000/ml)” value in experiment [1] (concentration 1 × 10^−8M) is listed as 66 1000/ml; in experiment [1] (concentration 3.3 × 10^−8M), 23 1000/ml.
